Laboratory results published in patent publication US9211310B2, “Use of a Chinese medicine composition in preparing medicaments for treating secondary prevention of myocardial infarction” (TASLY PHARMACEUTICAL GROUP CO., LTD, priority 2010, dated 2015).

Tested on: patients after acute myocardial infarction
Experiment: Life quality, Seattle Angina Questionnaire (SAQ), same clinical trial
Assay type: in vivo, human
Conditions: PP
Text: 3508 patients who were in accordance with the diagnostic standards of AMI for 28 days to 2 years and differentiated as Qi deficiency and blood stagnation syndrome by TCM were studied. 0.5 g Chinese medicine composition prepared by the method of EXAMPLE 1 (Coded as QSYQ) was administrated half an hour after meal, 3 times per day.
There were 19 questions in the Seattle angina questionnaire (SAQ), including 5 parts: physical limitation (PL), anginal stability (AS), anginal frequency (AF), treatment satisfaction (TS) and disease perception (DP). After being given necessary explanation by doctors, the questions were answered independently by patients.
They included the overall survival time, angina pectoris score, TCM symptom score and life quality score, where angina pectoris score, TCM symptom score and life quality score were evaluated at randomization, in 1st, 3rd, 6th, 9th, 12th month after treatment and 18th month after follow-up.
All evaluation results of SAQ were described during the period of observation, and Wilcoxon rank sum test was used for inter-group comparison.
The evaluation results in the SAQ were depicted in different observations, and inter-group comparison was tested by Wilcoxon Rank-sum test.

CC(=O)Oc1ccccc1C(=O)O [Control group, aspirine]
SAQ Question 1-7: Moserately limited, patients (%) (3 months after treatment): (14.91%) | SAQ Question 1-7: Not limited, patients (%) (3 months after treatment): (13.46%) | SAQ Question 1-7: Other reasons, patients (%) (3 months after treatment): (3.11%) | SAQ Question 1-7: Severely limited, patients (%) (3 months after treatment): (16.01%) | SAQ Question 1-7: Slightly limited, patients (%) (3 months after treatment): (28.71%) | SAQ Question 1-8: Mildly limited, patients (%) (3 months after treatment): (25.82%) | SAQ Question 1-8: Moderately limited, patients (%) (3 months after treatment): (17.90%) | SAQ Question 1-8: Not limited, patients (%) (3 months after treatment): (10.48%) | SAQ Question 1-8: Other reasons, patients (%) (3 months after treatment): (2.91%) | SAQ Question 1-8: Severely limieted, patients (%) (3 months after treatment): (21.30%) | SAQ Question 1-8: Slightly limited, patients (%) (3 months after treatment): (21.58%) | 8th question: Dissatisfied, patients (%) (6 months after treatment): (0.07%) | 8th question: Highly satisfied, patients (%) (6 months after treatment): (20.69%) | 8th question: Mostly satisfied, patients (%) (6 months after treatment): (56.70%) | 8th question: Partly satisfied, patients (%) (6 months after treatment): (20.96%) | 9th question: Few, patients (%) (6 months after treatment): (34.99%) | 9th question: Mild, patients (%) (6 months after treatment): (34.44%) | 9th question: Moderate, patients (%) (6 months after treatment): (10.54%) | 9th question: Severe, patients (%) (6 months after treatment): (0.21%) | 9th question: Uneffective, patients (%) (6 months after treatment): (19.83%) | 10th question: Dissatisfied, patients (%) (6 months after treatment): (20.36%) | 10th question: Highly satisfied, patients (%) (6 months after treatment): (4.88%) | 10th question: Mostly dissatisfied, patients (%) (6 months after treatment): (21.32%) | 10th question: Mostly satisfied, patients (%) (6 months after treatment): (26.34%) | 10th question: Partly satisfied, patients (%) (6 months after treatment): (27.10%) | 11th question: Continuously worried, patients (%) (6 months after treatment): (3.44%) | 11th question: No worried, patients (%) (6 months after treatment): (4.81%) | 11th question: Occasionally worried, patients (%) (6 months after treatment): (42.68%) | 11th question: Often worried, patients (%) (6 months after treatment): (14.57%) | 11th question: Seldom worried, patients (%) (6 months after treatment): (34.50%) | SAQ 4th question, 1-2 times per week: % of patients (6 months after treatment): (18.08%) | SAQ 4th question, 1-2 times per week: number of patients (6 months after treatment): 263 | SAQ 4th question, 1-3 times per day: % of patients (6 months after treatment): (3.85%) | SAQ 4th question, 1-3 times per day: number of patients (6 months after treatment): 56 | SAQ 4th question, <1 time per week: % of patients (6 months after treatment): (11.34%) | SAQ 4th question, <1 time per week: number of patients (6 months after treatment): 165 | SAQ 4th question, Not used: % of patients (6 months after treatment): (60.14%) | SAQ 4th question, Not used: number of patients (6 months after treatment): 875 | SAQ 4th question, ≧3 times per week: % of patients (6 months after treatment): (6.53%) | SAQ 4th question, ≧3 times per week: number of patients (6 months after treatment): 95 | SAQ 4th question, ≧4 times per day: % of patients (6 months after treatment): (0.07%) | SAQ 4th question, ≧4 times per day: number of patients (6 months after treatment): 1 | SAQ 5th question, 1-2 times per week: % of patients (6 months after treatment): (27.01%) | SAQ 5th question, 1-2 times per week: number of patients (6 months after treatment): 393 | SAQ 5th question, 1-3 times per day: % of patients (6 months after treatment): (11.00%) | SAQ 5th question, 1-3 times per day: number of patients (6 months after treatment): 160 | SAQ 5th question, <1 time per week: % of patients (6 months after treatment): (28.18%) | SAQ 5th question, <1 time per week: number of patients (6 months after treatment): 410 | SAQ 5th question, No onset: % of patients (6 months after treatment): (4.47%) | SAQ 5th question, No onset: number of patients (6 months after treatment): 65 | SAQ 5th question, ≧3 times per week: % of patients (6 months after treatment): (28.93%) | SAQ 5th question, ≧3 times per week: number of patients (6 months after treatment): 421 | SAQ 5th question, ≧4 times per day: % of patients (6 months after treatment): (0.41%) | SAQ 5th question, ≧4 times per day: number of patients (6 months after treatment): 6 | SAQ 6th question, Dissatisfied: % of patients (6 months after treatment): (0.00%) | SAQ 6th question, Dissatisfied: number of patients (6 months after treatment): 0 | SAQ 6th question, Highly satisfied: % of patients (6 months after treatment): (22.27%) | SAQ 6th question, Highly satisfied: number of patients (6 months after treatment): 324 | SAQ 6th question, Mostly dissatisfied: % of patients (6 months after treatment): (1.65%) | SAQ 6th question, Mostly dissatisfied: number of patients (6 months after treatment): 24 | SAQ 6th question, Mostly satisfied: % of patients (6 months after treatment): (55.95%) | SAQ 6th question, Mostly satisfied: number of patients (6 months after treatment): 814 | SAQ 6th question, Partly satisfied: % of patients (6 months after treatment): (20.14%) | SAQ 6th question, Partly satisfied: number of patients (6 months after treatment): 293 | SAQ 7th question, Dissatisfied: % of patients (6 months after treatment): (0.07%) | SAQ 7th question, Dissatisfied: number of patients (6 months after treatment): 1 | SAQ 7th question, Highly satisfied: % of patients (6 months after treatment): (25.67%) | SAQ 7th question, Highly satisfied: number of patients (6 months after treatment): 373 | SAQ 7th question, Mostly dissatisfied: % of patients (6 months after treatment): (1.10%) | SAQ 7th question, Mostly dissatisfied: number of patients (6 months after treatment): 16 | SAQ 7th question, Mostly satisfied: % of patients (6 months after treatment): (58.22%) | SAQ 7th question, Mostly satisfied: number of patients (6 months after treatment): 846 | SAQ 7th question, Partly satisfied: % of patients (6 months after treatment): (14.93%) | SAQ 7th question, Partly satisfied: number of patients (6 months after treatment): 217 | SAQ Question 1-1 Mildly limited, number of patients (6 months after treatment): 22 | SAQ Question 1-1 Mildly limited, percent of patients (6 months after treatment): (1.52%) | SAQ Question 1-1 Moderately limited, number of patients (6 months after treatment): 4
